Experimental findings from US20060252698A1, “Compounds for inhibiting cathepsin activity” (priority 2005, published 2006) are described below.

Molecules are shown by their SMILES. Starred links: 1 amine or outer side, 2 acyl side, 3 side chain; linkers in the order of their positions; H or OH if unused. Non-standard residues stand in square brackets, D forms with d. Residues, ends and D or L forms follow the SMILES beside them. *: point of attachment. Pro(3S,4R-methano) = O=C(O)[C@H]1NC[C@@H]2C[C@@H]21; Isobutyloxycarbonyl = CC(C)COC(=O)*; X3 = C=CCCC(N[*:1])C(=O)C(=O)[*:2]; Hyp = O=C(O)[C@@H]1C[C@@H](O)CN1; X2 = CCCC(N[*:1])C(=O)C(=O)[*:2]; Tic = O=C(O)[C@@H]1Cc2ccccc2CN1; Chg = N[CH](C(=O)O)C1CCCCC1; Phg = N[CH](C(=O)O)c1ccccc1; Tle = CC(C)(C)[C@H](N)C(=O)O; Boc = CC(C)(C)OC(=O)*; CO = O=C([*:1])[*:2]; X1 = CC1(N*)CCCCC1; tBu = CC(C)(C)*

The target in the assay is T1, Human Liver Cathepsin L (Homo sapiens, UniProt P07711).
T1 construct: purchased Calbiochem 219402
T1 sequence (P07711 114-288 limits assumed): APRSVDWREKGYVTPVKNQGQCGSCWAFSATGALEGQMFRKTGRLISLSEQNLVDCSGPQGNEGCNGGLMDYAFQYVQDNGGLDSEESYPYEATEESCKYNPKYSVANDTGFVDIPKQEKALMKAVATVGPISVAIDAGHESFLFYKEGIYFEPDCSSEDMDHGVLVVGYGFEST
T1 sequence (P07711 292-333 limits assumed): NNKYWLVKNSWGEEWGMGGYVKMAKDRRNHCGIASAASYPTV
Put plainly: Cathepsin L inhibition assay (kinetic, Z-Phe-Arg-pNA substrate). The note with it: Z-Phe-Arg-pNA 120 μM, enzyme 12 nM, pH 5.5, read at 410 nm. It is filed as biochemical. Here is the method:
Cathepsin Assay Protocols:
• 1. 96-well Round or V-bottom microplates for dilutions • 2. 96-well COSTAR UV microplates for assay (COSTAR cat.#3635) • 3. Bio-Spin 6 Chromatography Columns (BIO-RAD cat.#732-6002). • 4. 12-75 mm test tubes • 5. Falcon 50 ml tubes • 6. Falcon 14 ml tubes • 7. 1.5 ml eppendorf tube • 8. ≦10 ml buffer reservoir Reagents: • 1. Enzyme: Cathepsin G, M.W.23,500, 10 μM stock. • 2. Substrate:Suc-Ala-Ala-Pro-Phe-pNA, M.W. 624.65, prep. 100 mM [62.465 mg/ml] stock. • 3. Buffer: [50 mM HEPES, 500 mM NaCl, 5 μM EDTA, pH 7.14], 5 μM DTT Instrument Settings: SpectraMax Plus • 1. Kinetic assay reading@405 nm • 2. Read interval: 30 seconds • 3. Time: 1 hour • 4. OD Min: −0.001 • 5. OD Max: 0.5 • 6. Data Mode: Absorbance • 7. e405=194.078 μM/O.D. Procedure: • 1. Add 73 μl of buffer to all wells. • 2. Add […] of buffer to (−E) controls. • 3. Add 7 μl of sample and/or DMSO for controls to appropriate wells. • 4. Prep. substrate: 100 mM (62.465 mg/ml) stock in 100% DMSO. • 5. Dilute 1:20 in buffer. 75 μl in 1.425 ml. 5 mM final. • 6. Add 20 μl of 5 mM substrate to all wells. 500 μM final. • 7. Dilute enzyme (1:50) in buffer; Add 120 μl to 5,880 μl buffer. 2×[200 nM] final. • 8. Add 100 μl of 2× [200 nM] enzyme to assigned wells, except (−E) controls. [100 nM] final. • 11. Vortex 20 seconds. Read@ 405 nM every 30 seconds for 1 hour on SpectraMax Plus • Endpoint assay reading plate@ 600 nM. Used for the detection of precipitation. Cathepsin H: Materials: • 1. 96-well Round or V-bottom microplates for dilutions • 2. 96-well COSTAR UV microplates for assay (COSTAR cat.#3635) • 3. Bio-Spin 6 Chromatography Columns (BIO-RAD cat.#732-6002) • 4. 12-75 mm test tubes • 5. Falcon 50 ml tubes • 6. Falcon 14 ml tubes • 7. 1.5 ml eppendorf tube • 8. ≧10 ml buffer reservoir Reagents: • 1. Enzyme: Cathepsin H, M.W.28,000, 9.07 μM stock. • 2. Substrate:H-Arg-pNA, M.W. 367.2, prep. 50 mM [18.36 mg/ml] stock. • 3. Buffer: [100 mM NaP04, 1 mM EDTA, 1 mM DTT, pH 6.5 Instrument Settings: SpectraMax Plus • 1. Kinetic assay reading@410 nM • 2. Read interval: 30 seconds • 3. Time: 1 hour • 4. OD Min: −0.001 • 5. OD Max: 0.05 • 6. Data Mode: Absorbance • 7. e410=188.415 μM/O.D. Km=108±5 μM Procedure: • 1. Prep. substrate: 50 mM (18.36 mg/ml) stock in 100% DMSO. • 2. Add 73 μl of buffer to all wells. • 3. Add 7 μl of sample to appropriate wells: a.) 100% DMSO for (+E) & (−E) controls. • 4. Add 100 μl of buffer to (−E) controls. • 5. Dilute substrate (1:20) in buffer; Add 140 μl to 2.66 ml buffer while vortexing. [2.5 mM] final. • 6. Add 20 μl of substrate to all wells. Vortex 3-5 seconds. [250 μM] final. • 7. Dilute enzyme (1:64.8) in buffer; Add 179 μl to 11.418 ml buffer. 2× [140 nM] final. • 8. Add 100 μl of 2× [140 nM] enzyme to assigned wells, except (−E) controls. [70 nM] final. • 9. Read@410 nM every 30 seconds for 1 hour on SpectraMax Plus Cathepsin L: Materials: • 1. 96-well Round or V-bottom microplates for dilutions • 2. 96-well COSTAR UV microplates for assay (COSTAR cat.#3635) • 3. Falcon 50 ml tubes • 4. Falcon 14 ml tubes • 5. 1.5 ml eppendorf tube • 6. 10 ml buffer reservoir Reagents: • 1. Enzyme: Calbiochem #219402: Cathepsin L, M.W.29,000, 11.62 μM stock. Lot#B45683 • 2. Substrate: Bachem #L-1242: Z-Phe-Arg-pNA, M.W. 612.09, prep. 4.8 mM [2.938 mg/ml] stock in 100% DMSO. • 3. Buffer: [100 mM NaP04, 1 mM EDTA, pH 5.5] Supplement buffer w/1 mM DTT, day of assay. Experiment #1: • Instrument settings: SpectraMax Plus microtiter plate reader (Molecular Devices, Sunnydale, Calif.) • 1. Kinetic assay reading@410 nM • 2. Read interval: 30 seconds • 3. Time: 1 hour • 4. OD Min: −0.001 • 5. OD Max: 0.05 • 6. Data Mode: Absorbance • 7. ε410=161.311 μM/O.D. Km=56±8 μM Procedure: • 1. Add 88 μl of buffer to all wells. • 2. Add 7 μl of sample or 100% DMSO to appropriate wells. • 3. Add 100 μl of buffer to (−E) controls. • 5. Add 5 μ 4.8 mM] substrate to all wells. [120 μM] final. • 6. Vortex 3-5 seconds. • 7. Dilute enzyme (1:483.87) in buffer; Add 24.8 μl to 12,000 μl buffer. 2×[24 nM] final. • 8. […]
As for `CCCC[C@H](NC(=O)[C@@H]1[C@@H]2[C@H](CN1C(=O)[C@@H](NC(=O)NC1(CS(=O)(=O)C(C)(C)C)CCCCC1)C1(C)CCCCC1)C2(C)C)C(=O)C(=O)NC1CC1`, the Ki was 11 nM. The same measure for `CC(C)(C)OC(=O)N[C@H](C(=O)N1C[C@H]2[C@@H]([C@H]1C(=O)NC(CC1CC1)C(=O)C(N)=O)C(C)(C)C2(C)C)C1CCCCC1` (some centres unmarked): 220 nM. Take `C=CCCC(NC(=O)[C@H]1C(C(=O)[C@@H](NC(=O)OC(C)(C)C)C2CCCCC2)C[C@@H]2C[C@@H]21)C(=O)C(=O)NCC=C` (some centres unmarked): affinity was put at a Ki of 1500 nM. The molecule `CC(C)(C)OC(=O)N[C@H](C(=O)N1CCC[C@H]1C(=O)NC(CC1CCC1)C(=O)C(N)=O)C(C)(C)C` (some centres unmarked) came in with a Ki of 1900 nM. This Ki and that of the molecule before are within 1.5-fold of each other. The same measure for `CCCC(NC(=O)[C@@H]1[C@@H]2CCN1C(=O)[C@H](C(C)(C)C)NC(=O)Cc1cccc(c1)OCCCO2)C(=O)C(=O)NCC(=O)N[C@H](C(=O)N(C)C)c1ccccc1` (some centres unmarked): 70 nM; for `CCC1C[C@]1(NC(=O)[C@@H]1C[C@H](Oc2cc(-c3ccccc3)nc3cc(OC)ccc23)CN1C(=O)[C@@H](NC(=O)OC(C)(C)C)C(C)C)C(=O)O` (some centres unmarked): 100 nM. The same measure for `CCCC(NC(=O)[C@@H]1C[C@@H]2CN1C(=O)C(C1CCCCC1)NC(=O)Cc1cccc(c1)OCCCC(C)(C)C2)C(=O)C(N)=O` (some centres unmarked): 17 nM. Molecule `CN(C)C(=O)c1nc(CNC(=O)C(=O)C(CC2CCC2)NC(=O)[C@@H]2[C@@H]3[C@H](CN2C(=O)[C@@H](NC(=O)NC(C)(C)C)C(C)(C)C)C3(C)C)sc1-c1ccccc1` (some centres unmarked) gave a Ki of 190 nM.

The molecule `CC(C)(C)NC(=O)N[C@H]1CCCCCCCCCC[C@@H](C(=O)C(N)=O)NC(=O)[C@@H]2[C@@H]3[C@H](CN2C1=O)C3(C)C` came in with a Ki of 300 nM.

With `CC(C)(C)OC(=O)N[C@H]1CCCCCCCC[C@@H](C(=O)C(N)=O)NC(=O)[C@@H]2[C@@H]3[C@H](CN2C1=O)C3(C)C`, the affinity corresponds to a Ki of 550 nM. Molecule `C=CCNC(=O)C(=O)C(CCC)NC(=O)[C@@H]1CCCN1C(=O)[C@@H](NC(=O)NC1(CS(C)(=O)=O)CCCCC1)C(C)(C)C` (some centres unmarked) had an inhibition constant Ki of 740 nM. Next, `C=CCCC(NC(=O)[C@@H]1[C@H]2C[C@H]2CN1C(=O)[C@@H](NC(=O)OC(C)(C)C)C1CCCCC1)C(=O)C(=O)NCC(=O)N[C@H](C(=O)N(C)C)c1ccccc1` (stereo partly drawn) (Boc-[Chg][Pro(3S,4R-methano)][X3]G[Phg]-NMe2): 270 nM; `CCCC(NC(=O)[C@@H]1Cc2ccccc2CN1C(=O)[C@@H](NC(=O)OC(C)(C)C)C1CCCCC1)C(=O)C(=O)NCC(=O)N[C@H](C(=O)NC)c1ccccc1` (some centres unmarked) (Boc-[Chg][Tic][X2]G[Phg]-NHMe): 36 nM. The same measure for `CCCC(NC(=O)C(CC(C)C)NC(=O)C(NC(=O)OCC(C)C)C1CCCCC1)C(=O)C(=O)NCC(=O)NC(C(N)=O)c1ccccc1` (centres unmarked) (Isobutyloxycarbonyl-[Chg]L[X2]G[Phg]-NH2; configuration not given here): 2 nM. With `CCCC(NC(=O)[C@@H]1C[C@@H](OC(C)(C)C)CN1C(=O)[C@@H](NC(=O)NC1(C)CCCCC1)C(C)(C)C)C(=O)C(=O)NCC(=O)N[C@H](C(=O)N(C)C)c1ccccc1` (some centres unmarked) ({X1-CO}-[Tle][Hyp](tBu)[X2]G[Phg]-NMe2), affinity was put at a Ki of 170 nM.

As to `CCCC[C@H](NC(=O)[C@@H]1[C@@H]2[C@H](CN1C(=O)[C@@H](NC(=O)NC1(CS(=O)(=O)C(C)(C)C)CCCCC1)C(C)(C)C)C2(C)C)C(=O)C(=O)NC1CC1` [drawing 652], the Ki turned out to be 7 nM. The same measure for `C=CCNC(=O)C(=O)[C@@H]1CCCCCCCCC[C@H](NC(=O)NC2(CS(=O)(=O)C(C)(C)C)CCCCC2)C(=O)N2C[C@H]3[C@@H]([C@H]2C(=O)N1)C3(C)C` [drawing 653]: 10 nM; for `CC(C)(C)[C@H](NC(=O)NC1(CS(=O)(=O)C(C)(C)C)CCCCC1)C(=O)N1C[C@H]2[C@@H]([C@H]1C(=O)N[C@@H](CCC1CC1)C(=O)C(=O)NC1CC1)C2(C)C` [drawing 662]: 25 nM; for `CCCC[C@H](NC(=O)[C@@H]1[C@@H]2[C@H](CN1C(=O)[C@@H](NC(=O)NC1(CS(=O)(=O)C(C)(C)C)CCCCC1)C(C)(C)C)C2(C)C)C(=O)C(=O)NC1CC1` [drawing 667]: 40 nM. Consider `C=CCNC(=O)C(=O)[C@H](CCC1CC1)NC(=O)[C@@H]1[C@@H]2[C@H](CN1C(=O)[C@@H](NC(=O)NC1(CS(=O)(=O)C(C)(C)C)CCCCC1)C(C)(C)C)C2(C)C` [drawing 669], for which affinity was put at a Ki of 40 nM. In other words, the double-digit nanomolar range. The same measure for `C=CCNC(=O)C(=O)[C@H](CCC1CC1)NC(=O)[C@@H]1[C@@H]2[C@H](CN1C(=O)[C@@H](NC(=O)NC1(CS(=O)(=O)C(C)(C)C)CCCCC1)C(C)(C)C)C2(C)C` [drawing 670]: 45 nM; for `CC(C)(C)[C@H](NC(=O)NC1(CS(=O)(=O)C(C)(C)C)CCCCC1)C(=O)N1C[C@H]2[C@@H]([C@H]1C(=O)N[C@@H](CCC1CC1)C(=O)C(=O)NC1CC1)C2(C)C` [drawing 671]: 47 nM. In the case of `C=CCNC(=O)C(=O)[C@H](CCCC)NC(=O)[C@@H]1[C@@H]2[C@H](CN1C(=O)[C@@H](NC(=O)NC1([C@H]3CCCS3(=O)=O)CCCCC1)C(C)(C)C)C2(C)C` [drawing 672], affinity was put at a Ki of 49 nM. This Ki and that of the molecule before are within 1.5-fold of each other. The same measure for `C=CCNC(=O)C(=O)[C@H](CCCC)NC(=O)[C@@H]1[C@@H]2[C@H](CN1C(=O)[C@@H](NC(=O)NC1([C@H]3CCCS3(=O)=O)CCCCC1)C(C)(C)C)C2(C)C` [drawing 681]: 140 nM; for `CC(=O)N[C@@H](CC(C)C)C(=O)N[C@@H](CC(C)C)C(=O)N[C@H](C=O)CCCNC(=N)N` [drawing 687]: 9 nM; for `CC(=O)N[C@@H](CC(C)C)C(=O)N[C@@H](CC(C)C)C(=O)N[C@H](C=O)CCCNC(=N)N` [drawing 688]: 1.9 nM. The same measure for `CC(=O)N[C@@H](CC(C)C)C(=O)N[C@@H](CC(C)C)C(=O)N[C@H](C=O)CCCNC(=N)N` [drawing 689]: 8 nM; for `C=CCNC(=O)C(=O)[C@@H]1CCCCCCCCC[C@H](NC(=O)NC2(CS(=O)(=O)C(C)(C)C)CCCCC2)C(=O)N2C[C@H]3[C@@H]([C@H]2C(=O)N1)C3(C)C` [drawing 699]: 60 nM; for `CC(=O)N[C@@H](CC(C)C)C(=O)N[C@@H](CC(C)C)C(=O)N[C@H](C=O)CCCNC(=N)N` [drawing 710]: 4.8 nM.

What is called Ki is the dissociation constant of the complex between target and ligand, obtained from inhibition or displacement. Higher therefore signals a looser hold on the target.
